Measured values reported in US20250339569A1, “CARBONIC ANHYDRASE IX LIGANDS” (priority 2021, published 2025).
Like-named read-outs stand apart in the source and are kept apart here. Starred links: 1 amine or outer side, 2 acyl side, 3 side chain; linkers in the order of their positions; H or OH if unused. Positions of bridges follow the written chain, without caps; N, C: chain ends. Non-standard residues stand in square brackets, D forms with d. Residues, ends and D or L forms follow the SMILES beside them. *: point of attachment. Phe(3-NHCO(CH2)3SO2NH2) = N[C@@H](Cc1cccc(NC(=O)CCCS(N)(=O)=O)c1)C(=O)O; DOTA = O=C(O)CN1CCN(CC(=O)O)CCN(CC(=O)*)CCN(CC(=O)O)CC1; X5 = O=C(O)CCCC(=O)Nc1cccc(C[C@H](N[*:1])C(=O)[*:2])c1; X6 = O=C(O)CCC(=O)Nc1cccc(C[C@H](N[*:1])C(=O)[*:2])c1; mXylylene = c1cc(C[*:1])cc(C[*:2])c1; X2 = O=C(CN1CCC(N[*:1])CC1)[*:2]

What was measured:
[1] = target: T1, CAIX-expressing human HT-29 colorectal cancer cells (Homo sapiens, UniProt Q16790); test: FACS binding assay (IC50 determination, competition with tracer 3BP-2776 or 3BP-4149); conditions: FACS binding assay, HT-29 cells, 4° C., 1 hour, read-out: pIC50 category (activity) (converted)
T1 construct: CAIX-expressing human HT-29 colorectal cancer cells; host or cells: HT-29 human colorectal cancer cells
How it was run: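 HT-29 cells in FACS buffer (PBS, 1% FCS) at 500.000 cells/ml were exposed to compounds competing with a labelled tracer, with biotinylated compounds detected by 1 μg/mL APC-streptavidin for 30 min on ice. APC/Cy5 median fluorescence was read by flow cytometry and IC50 derived by 4PL fit.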

[2] = mouse, plasma, 24 h
[3] = target: T2, human carbonic anhydrase IX (hCAIX-Fc) (Homo sapiens, UniProt Q16790); test: Surface plasmon resonance assay with hCAIX-Fc; type: binding; conditions: 25° C.; for t1/2 category (activity): SPR dissociation half-life, hCAIX-Fc; for Kd: SPR, hCAIX-Fc captured, read-out: pKD category (activity) (converted)
T2 construct: purchased SinoBliological (Sino Biological) 10107-H02H

[4] = competition with tracer 3BP-4149 (3 nM, Cy5-labeled)

IC50 [1, 4] | % intact compound remaining (incubation time) [2] | t1/2 category (activity) [3] | Kd [3] | IC50 ([1]; competition with tracer 3BP-2776 (10 nM, biotin-labeled)) | SMILES
< 10 nM | >95% | A (t1/2>15.0 minutes) | < 10 nM |  | CC(C)C[C@@H]1NC(=O)[C@H](Cc2cccc(NC(=O)CCCS(N)(=O)=O)c2)NC(=O)[C@H](CC(=O)O)NC(=O)[C@H]2CCCN2C(=O)[C@H](CCC(=O)O)NC(=O)[C@@H](NC(=O)[C@H](Cc2ccc(O)cc2)NC(=O)[C@@H](NC(=O)CN2CCC(NC(=O)CN3CCN(CC(=O)O)CCN(CC(=O)O)CCN(CC(=O)O)CC3)CC2)C(C)C)CSCc2cccc(c2)CSC[C@@H](C(N)=O)NC(=O)[C@H](CO)NC(=O)[C@H](Cc2c[nH]c3ccccc23)NC(=O)[C@H]([C@@H](C)O)NC1=O [3BP-4369] ({DOTA}-[X2]VYCE[dP]D[Phe(3-NHCO(CH2)3SO2NH2)]LTWSC-NH2; linker 4-13 via mXylylene)
 | >95% | A (t1/2>15.0 minutes) | < 10 nM | < 10 nM | CC(C)C[C@@H]1NC(=O)[C@H](Cc2cccc(NC(=O)CCC(=O)O)c2)NC(=O)[C@H](CC(=O)O)NC(=O)[C@H]2CCCN2C(=O)[C@H](CCC(=O)O)NC(=O)[C@@H](NC(=O)[C@H](Cc2ccc(O)cc2)NC(=O)[C@@H](NC(=O)CN2CCC(NC(=O)CN3CCN(CC(=O)O)CCN(CC(=O)O)CCN(CC(=O)O)CC3)CC2)C(C)C)CSCc2cccc(c2)CSC[C@@H](C(N)=O)NC(=O)[C@H](CO)NC(=O)[C@H](Cc2c[nH]c3ccccc23)NC(=O)[C@H]([C@@H](C)O)NC1=O [3BP-4237, DOTA-APAc-Val-Tyr-[Cys(3MeBn)-Glu-pro-Asp-Af3(HO-Succinyl)-Leu-Thr-Trp-Ser-Cys]-NH2] ({DOTA}-[X2]VYCE[dP]D[X6]LTWSC-NH2; linker 4-13 via mXylylene)
< 10 nM | >95% | A (t1/2>15.0 minutes) | < 10 nM |  | CC(C)C[C@@H]1NC(=O)[C@H](Cc2cccc(NC(=O)CCCC(=O)O)c2)NC(=O)[C@H](CC(=O)O)NC(=O)[C@H]2CCCN2C(=O)[C@H](CCC(=O)O)NC(=O)[C@@H](NC(=O)[C@H](Cc2ccc(O)cc2)NC(=O)[C@@H](NC(=O)CN2CCC(NC(=O)CN3CCN(CC(=O)O)CCN(CC(=O)O)CCN(CC(=O)O)CC3)CC2)C(C)C)CSCc2cccc(c2)CSC[C@@H](C(N)=O)NC(=O)[C@H](CO)NC(=O)[C@H](Cc2c[nH]c3ccccc23)NC(=O)[C@H]([C@@H](C)O)NC1=O [3BP-4367] ({DOTA}-[X2]VYCE[dP]D[X5]LTWSC-NH2; linker 4-13 via mXylylene)
